Where “and” joins values, the source holds several entries; their conditions need not be identical. Equal entries are not always repeated. Entries after “also recorded” stand apart in the source; their conditions may differ. Where two headings read alike, the source gives them in different places. No end group written: not given here.
Key:
[1] = system: patients having macular degeneration characterized by geographic atrophy (GA); experiment: Study in geographic atrophy (GA) patients, BCVA; type: in vivo, human; conditions: single IVT injection, doses 25 ug and 50 ug as printed
Description: Baseline best corrected visual acuity (BCVA) was measured prior to treatment with ONL1204.

MCP1 = experiment: Retinal detachment study, cytokine change from administration to surgery: MCP1; type: in vivo, human; conditions: for Percent Change (%) from time of administering ONL1204 to surgery MCP1: individual patients
Description: (§1) During the study, ocular fluid samples were also collected at the time of study drug injection and at the time of vitrectomy. These samples were used for pharmacokinetic and pharmacodynamic analyses.
(§2) Patients were enrolled in ascending dose groups. […] Safety visits were conducted one day post-injection and as deemed necessary by the examining Investigator (at least 1 visit every 3 days) until Visit 3. At Visit 3 (3+ days post-injection, in accordance with standard of care) patients underwent surgical repair of their retinal detachment with vitrectomy (with or without scleral buckling) and gas or oil tamponade. At the time of surgery, an undiluted vitreous sample was collected for pharmacokinetic and pharmacodynamics analyses, and an aqueous sample was collected for pharmacodynamic analysis. Additional safety visits were targeted for and generally conducted one day post-surgery, 7 days (±3 days) post-surgery, 14 (±4 days) days post-surgery, and Weeks 6, 9, 12 (±7 days each), and Week 24 (±14 days; study exit).

IL18 = experiment: Retinal detachment study, cytokine change from administration to surgery: IL18; type: in vivo, human; conditions: for Percent Change (%) from time of administering ONL1204 to surgery IL18: individual patients
Description: as §1, §2

[2] = system: patients with retinal detachment; experiment: Retinal detachment study, best corrected visual acuity; type: in vivo, human; parameters: key to BCVA Snellen study eye baseline / BCVA Snellen study eye week 9: HM = hand motion; CF = counting fingers; conditions: for BCVA logMAR study eye week 6 / BCVA Snellen study eye week 6: week 6, individual patients; for BCVA logMAR study eye week 9 / BCVA Snellen study eye week 9: week 9, individual patients; for BCVA logMAR study eye week 24 / BCVA Snellen study eye week 24: week 24, individual patients
Description: as §1, §2
Therefore, a volume of 0.05 or 0.1 mL was injected into the study eye. Patient participation was approximately 24 weeks (6 months): a single injection treatment and 24 weeks of follow-up.

ICAM1 = experiment: Retinal detachment study, cytokine change from administration to surgery: ICAM1; type: in vivo, human; conditions: for Percent Change (%) from time of administering ONL1204 to surgery ICAM1: individual patients
Description: as §1, §2

male rabbit NaIO3 model = experiment: Sodium iodate (NaIO3) challenge study, lesion size (area of RPE depigmentation); type: in vivo; conditions: for lesion area versus negative control: NaIO3 challenge Day 4; for mean lesion size smaller compared to negative controls: NaIO3 challenge Day 59
Description: Animals were anesthetized with isoflurane vapors to effect. […] No reflux was noted on the dosing record.
Animals were anesthetized with isoflurane vapors to effect.
The resulting area was then measured.

[3] = rabbit, in vivo
Description: Body weights were measured and recorded prior to first dose, approximately weekly (for surviving animals through Week 12), and prior to euthanasia. […] Ophthalmic examinations were performed using the Hackett-McDonald Scoring System on Days 0, 7, 14, 28, 90, 97, 151, and 168. Pharmacokinetic analyses were performed on the vitreous humor concentration data.
Seven animals received a repeat IVT dose at 2 mg/mL (0.1 mg/eye) on Day 90.
Vitreous humor, retina, and choroid were collected on days 1, 7, 14, 28, 42, 61, 90, 97, 151, and 168. Eyes were enucleated, snap frozen using liquid nitrogen, and kept on dry ice or frozen at −80° C. until dissected for collection of aqueous humor, vitreous humor, retina, choroid, iris-ciliary body (ICB), and lens.
To homogenize ocular tissue samples, weighed amounts of control bovine vitreous humor, retina, and choroid were homogenized in USA scientific impact resistant microtubes containing 2.8 mm ceramic beads. Unknown rabbit vitreous humor, retina, and choroid samples were homogenized in USA scientific impact resistant microtubes containing 2.8 mm ceramic beads. […]

IL1RA = experiment: Retinal detachment study, cytokine change from administration to surgery: IL1RA; type: in vivo, human; conditions: for Percent Change (%) from time of administering ONL1204 to surgery IL1RA: individual patients
Description: as §1, §2

[4] = system: patients with retinal detachment; experiment: Retinal detachment study, adverse events; type: in vivo, human
Description: The primary objective was to determine the Maximum Tolerated Dose (MTD) of a peptide an amino acid sequence […] and the structure of Formula III (ONL1204) and select doses for further clinical studies. During the study, ocular fluid samples were also collected at the time of study drug injection and at the time of vitrectomy. These samples were used for pharmacokinetic and pharmacodynamic analyses.
as §2
Planned determinations of dose limiting toxicity included consideration of the following events: • 1.

[5] = minipig, in vivo
Description: Seven animals received a repeat IVT dose at 2 mg/mL (0.1 mg/eye) on Day 90. […] Vitreous humor, retina, and choroid were collected on days 1, 7, 14, 28, and 88.

[6] = system: patients with progressing open angle glaucoma; experiment: Multi-dose study in progressing open-angle glaucoma, Humphrey Visual Field analysis; type: in vivo, human
Description: Visual function metrics were measured at over two screening time points, a baseline, and at about days 90, 177, 180, and 270. Measures for visual function included visual field analysis pre- and post-treatment with ONL1204.
Patients were part of the study for approximately 39 weeks (270 days). Randomization was be stratified by HVF mean deviation (−5.00 dB to >−10.00 dB and ≤−10.00 dB to −15.00 dB).
FIGS. 3-5 show study and fellow eye data for the changes in mean visual field analysis of clusters in sham, 50 ug, and 100 ug patients. The data represents mean data for each cluster (10 clusters per patient). […] Each cluster is denoted by a rate of change in sensitivity, in dB/yr. The Baseline sensitivity of each cluster is denoted in dB. Positive values indicate an improvement in visual field and/or improving rate of visual field change. FIGS. 6-8 show study and fellow eye data for the changes in mean visual field analysis (unclustered, point specific, pointwise) in sham, 50 ug, and 100 ug patients.

## HHIYLGAVNYIY-NH2 [ONL1204]
[1]
  visual outcomes (visual acuity, BCVA) versus baseline: improvement in visual outcomes
MCP1; 25 ug (dose per Table 1)
  Percent Change (%) from time of administering ONL1204 to surgery MCP1: −41.4% and −6.02% and −35.9%
MCP1; 50 ug (dose per Table 1)
  Percent Change (%) from time of administering ONL1204 to surgery MCP1: −3.12% and −48.4% and 11.6%
MCP1; 100 ug (dose per Table 1)
  Percent Change (%) from time of administering ONL1204 to surgery MCP1: −9.5% and 78.5% and 500%
MCP1; 200 ug (dose per Table 1)
  Percent Change (%) from time of administering ONL1204 to surgery MCP1: −2.4%
MCP1; all patients of Table 7
  mean change in MCP1 from administration to surgery: mean decrease
IL18; 25 ug (dose per Table 1)
  Percent Change (%) from time of administering ONL1204 to surgery IL18: −60.5% and −22.5% and −50.8%
IL18; 50 ug (dose per Table 1)
  Percent Change (%) from time of administering ONL1204 to surgery IL18: 0% (2×) and −100%
IL18; 100 ug (dose per Table 1)
  Percent Change (%) from time of administering ONL1204 to surgery IL18: −33.7% and 0% and 66.0%
IL18; 200 ug (dose per Table 1)
  Percent Change (%) from time of administering ONL1204 to surgery IL18: 0%
IL18; all patients of Table 7
  mean change in IL18 from administration to surgery: mean decrease
[2]; 25 ug (dose per Table 1)
  BCVA logMAR study eye week 6: 0.34 logMAR and 0.18 logMAR and 0.82 logMAR (2×)
  BCVA logMAR study eye week 9: 0.14 logMAR and 0.12 logMAR and 0.64 logMAR and 0.78 logMAR
  BCVA logMAR study eye week 24: 0.5 logMAR and 0.2 logMAR and 0.68 logMAR and 0.7 logMAR
[2]; 25 ug single IVT, baseline, individual patients
  BCVA Snellen study eye baseline: 20/160 and 20/100 and 20/200 and HM
[2]; 25 ug single IVT
  BCVA Snellen study eye week 6: 20/40 and 20/32 and 20/125 (2×)
  BCVA Snellen study eye week 9: 20/25 (2×) and 20/100 and 20/125
  BCVA Snellen study eye week 24: 20/60 and 20/32 and 20/100 (2×)
[2]; 50 ug (dose per Table 1), baseline, individual patients
  BCVA logMAR study eye baseline: 3 logMAR and 2 logMAR (3×)
[2]; 50 ug (dose per Table 1)
  BCVA logMAR study eye week 6: 0.46 logMAR and 0.38 logMAR (2×) and 0.52 logMAR
  BCVA logMAR study eye week 9: 0.6 logMAR and 0.56 logMAR and 0.34 logMAR
  BCVA logMAR study eye week 24: 0.76 logMAR and 0.2 logMAR and 0.64 logMAR and 0.34 logMAR
[2]; 50 ug single IVT, baseline, individual patients
  BCVA Snellen study eye baseline: HM and CF (3×)
[2]; 50 ug single IVT
  BCVA Snellen study eye week 6: 20/50 (2×) and 20/80
  BCVA Snellen study eye week 9: 20/80 (2×) and 20/50
  BCVA Snellen study eye week 24: 20/125 and 20/32 and 20/80 and 20/50
[2]; 100 ug (dose per Table 1)
  BCVA logMAR study eye week 6: 0.8 logMAR and 0.7 logMAR and 1 logMAR and 1.6 logMAR
  BCVA logMAR study eye week 24: 0.5 logMAR and 0.7 logMAR and 1.3 logMAR and 0.6 logMAR
[2]; 100 ug single IVT, baseline, individual patients
  BCVA Snellen study eye baseline: HM (2×) and 20/100 and 20/200
[2]; 100 ug single IVT
  BCVA Snellen study eye week 6: 20/125 and 20/100 and 20/200 and 20/800
  BCVA Snellen study eye week 9: 20/200 and 20/80 and HM and 20/400
  BCVA Snellen study eye week 24: 20/63 and 20/100 and 20/400 and 20/80
[2]; 200 ug (dose per Table 1)
  BCVA logMAR study eye week 6: 0.4 logMAR and 0.7 logMAR
  BCVA logMAR study eye week 9: 0.36 logMAR and 0.6 logMAR
  BCVA logMAR study eye week 24: 0.2 logMAR
[2]; 200 ug single IVT, baseline, individual patients
  BCVA Snellen study eye baseline: 20/160 and HM
[2]; 200 ug single IVT
  BCVA Snellen study eye week 6: 20/50 and 20/100
  BCVA Snellen study eye week 9: 20/40 and 20/80
  BCVA Snellen study eye week 24: 20/32
[2]; all doses, n 13, week 9
  summary statistics for all patients, mean (BCVA logMAR), Week 9: 0.78
[2]; all doses, n 13, week 24
  summary statistics for all patients, mean (BCVA logMAR), Week 24: 0.56
[2]; all doses, n 14, baseline
  summary statistics for all patients, mean (BCVA logMAR), Baseline: 1.86
[2]; all doses, n 14, week 6
  summary statistics for all patients, mean (BCVA logMAR), Week 6: 0.65
[2]; all patients receiving 25 ug and 50 ug
  visual outcomes (visual acuity): improvement in visual outcomes
ICAM1; 25 ug (dose per Table 1)
  Percent Change (%) from time of administering ONL1204 to surgery ICAM1: −82.4% and −42.7% and −86.2%
ICAM1; 50 ug (dose per Table 1)
  Percent Change (%) from time of administering ONL1204 to surgery ICAM1: 64.0% and −100% and 0%
ICAM1; 100 ug (dose per Table 1)
  Percent Change (%) from time of administering ONL1204 to surgery ICAM1: −43.9% and 24.9% and 22.7%
ICAM1; 200 ug (dose per Table 1)
  Percent Change (%) from time of administering ONL1204 to surgery ICAM1: 0%
ICAM1; all patients of Table 7
  mean change in ICAM from administration to surgery: mean decrease
Male rabbit NaIO3 model; 25 ug and 100 ug per eye IVT Day 0
  mean lesion size across challenge time points: substantive reduction in mean lesion size
Male rabbit NaIO3 model; 25 ug per eye IVT Day 0
  lesion area versus negative control: significantly lower than negative control
  mean lesion size smaller compared to negative controls: 40%
Male rabbit NaIO3 model; 100 ug per eye IVT Day 0
  lesion area versus negative control: significantly lower than negative control
  mean lesion size smaller compared to negative controls: 50%
Male rabbit NaIO3 model; 100 ug per eye IVT Day 0, NaIO3 challenge Day 14
  lesion size versus negative controls and 25 ug: significantly smaller lesion size
Male rabbit NaIO3 model; 100 ug per eye IVT Day 0, NaIO3 challenge Day 28
  lesion size versus negative control and 25 ug: significantly smaller lesion size
[3]
  detection in retinal tissue and vitreous humor: detected in retinal tissue as well as the vitreous humor after 168 days
  detection in the vitreous humor: detected in the vitreous humor across all time points analyzed
IL1RA; 25 ug (dose per Table 1)
  Percent Change (%) from time of administering ONL1204 to surgery IL1RA: −51.0% and −57.4% and −99.3%
IL1RA; 50 ug (dose per Table 1)
  Percent Change (%) from time of administering ONL1204 to surgery IL1RA: −60.0% and −94.4% and −88.3%
IL1RA; 100 ug (dose per Table 1)
  Percent Change (%) from time of administering ONL1204 to surgery IL1RA: 8.5% and −46.1% and −65.2%
IL1RA; 200 ug (dose per Table 1)
  Percent Change (%) from time of administering ONL1204 to surgery IL1RA: −26.3%
IL1RA; all patients of Table 7
  mean change in IL1RA from administration to surgery: mean decrease
[4]; 25 ug and 50 ug, study procedure or surgery related
  severity of adverse events: Most were mild
[4]; 4 patients 25 ug and 4 patients 50 ug, single IVT
  patients experiencing adverse events: 7 out of 8
[4]; 8 patients, 25 ug and 50 ug
  total adverse events: 20
[5]
  detection in the vitreous humor: detected in the vitreous humor across all time points analyzed
[6]; 50 ug and 100 ug, two IVT injections (day 0, day 90), compared to sham
  visual field outcomes as measured by Humphrey Visual Field (HVF) analysis: improvement in visual field outcomes; also recorded: improvement in visual field was generally observed
[6]; baseline sensitivity equal to or less than −5
  visual field benefit in patients having lower baseline sensitivities: benefits of ONL1204 treatment were also observed
